# Source: the supplement of paper PMC10307832
# What was measured:
# Assay in all cases: relative viability (nuclei count vs DMSO), 5 days (fraction); higher = more cells survive
# Vandetanib + Crizotinib = compound: COc1cc2/c(=N/c3ccc(Br)cc3F)nc[nH]c2cc1OCC1CCN(C)CC1 [Vandetanib] + C[C@@H](Oc1cc(-c2cnn(C3CCNCC3)c2)cnc1N)c1c(Cl)ccc(F)c1Cl [Crizotinib] (partner 1 µM)
# In short: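 One day after seeding in 1536-well plates, lung cancer cell lines were dosed by pin tool. Dosing was either single-drug or a fixed anchor-drug dose plus five library-drug doses (not always all listed) in √10 steps. After 5 days, nuclei were stained in one fix-and-stain step and counted on 4× images, and relative viability is the nuclei count of treated wells over that of vehicle wells, given as the median of duplicate plates.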
# NVP-TAE684 = compound: COc1cc(N2CCC(N3CCN(C)CC3)CC2)ccc1Nc1ncc(Cl)c(Nc2ccccc2S(=O)(=O)C(C)C)n1 [NVP-TAE684]
# In short: (§1)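 Hoechst staining, done together with fixation and permeabilisation, marked nuclei for 4× imaging and MetaXpress counting. This followed 5 days without medium change after lung cancer cell lines, kept overnight at 37 °C in 1536-well plates, were pinned with five library-drug doses (not always all listed) spaced by √10 on vehicle-anchored plates. Viability is the ratio of treated-well to vehicle-well nuclei, expressed as a median across plates. Plates passed only at control CV below 25% with at least one doubling.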
# Vandetanib = compound: COc1cc2/c(=N/c3ccc(Br)cc3F)nc[nH]c2cc1OCC1CCN(C)CC1 [Vandetanib]
# In short: as §1
# CUDC-101 = compound: C#Cc1cccc(Nc2ncnc3cc(OC)c(OCCCCCCC(=O)NO)cc23)c1 [CUDC-101]
# In short: as §1
Cell Line,relative viability (Vandetanib + Crizotinib; first compound 0.02 µM),relative viability (Vandetanib + Crizotinib; first compound 0.06325 µM),relative viability (Vandetanib + Crizotinib; first compound 0.2 µM),relative viability (Vandetanib + Crizotinib; first compound 0.6325 µM),relative viability (Vandetanib + Crizotinib; first compound 2 µM),relative viability (NVP-TAE684; 0.2 µM),relative viability (NVP-TAE684; 2 µM),relative viability (Vandetanib; 0.02 µM),relative viability (Vandetanib; 0.06325 µM),relative viability (Vandetanib; 0.2 µM),relative viability (Vandetanib; 0.6325 µM),relative viability (Vandetanib; 2 µM),relative viability (CUDC-101; 0.01 µM),relative viability (CUDC-101; 0.03162 µM),relative viability (CUDC-101; 0.1 µM),relative viability (CUDC-101; 0.3162 µM),relative viability (CUDC-101; 1 µM),relative viability (NVP-TAE684; 0.6325 µM)
NCI-H2087,0.785,0.949,0.835,0.88,0.904,1.09,0.989,0.934,0.938,1.02,1.15,1.14,1.24,1.06,0.95,1.1,0.884,–
NCI-H2126,0.983,0.964,0.99,0.97,0.959,0.991,0.684,0.96,0.91,0.965,0.906,0.903,1.04,0.957,1.03,0.94,0.81,0.959
NCI-H2170,1.22,1.26,1.11,1.18,1.1,0.995,1.04,0.944,0.917,1,0.97,0.989,0.974,0.987,1.06,1.01,0.9,0.969
NCI-H2228,0.446,0.473,–,0.484,0.479,0.632,0.29,1.04,0.983,0.836,1.12,0.809,1.02,1.23,0.946,1.09,1.07,0.36
NCI-H2347,0.665,0.56,0.737,0.789,0.718,0.964,0.986,1.03,0.785,1.03,1.06,0.988,1.1,1.04,1.07,1.11,0.972,0.932
NCI-H2405,0.876,0.664,0.875,0.88,0.795,1.06,0.574,0.993,0.785,1.1,1.06,0.689,1.06,0.984,1.09,1.1,0.951,0.869
NCI-H3122,0.291,0.257,0.266,0.261,0.249,0.236,0.126,0.928,1,1.02,0.984,0.978,0.942,0.995,1.03,1.01,0.994,0.164
PC-3 [JPC-3],0.96,0.943,0.935,0.811,0.52,1.08,0.984,1,0.922,0.983,0.653,0.507,1.05,0.972,0.522,0.542,0.431,0.945
PC-14,0.94,0.853,0.897,0.386,0.231,0.998,0.921,0.987,0.833,0.574,0.369,0.223,1.12,0.837,0.602,0.537,0.273,1.01
RERF-LC-KJ,0.83,0.789,0.871,0.883,0.794,0.971,0.79,0.962,0.954,0.963,0.927,0.815,1,1.02,1.01,0.98,0.801,0.969
SK-LU-1,1.06,0.667,0.862,0.909,0.732,1.12,0.733,1.01,0.791,1.02,1.07,0.984,1.19,0.988,1.07,0.963,0.87,0.962
SK-MES-1,1.01,0.902,0.938,0.926,0.875,1.02,0.714,1,0.896,1.03,0.912,0.827,0.968,0.984,0.989,0.971,0.683,–
SW 1573,0.896,0.704,0.7,0.815,0.849,0.948,0.645,0.941,0.972,0.92,0.979,0.983,1.16,0.976,1.09,1.07,0.734,1.02
